Source: patent US20120202787A1, “Novel Heteroaryl Imidazoles And Heteroaryl Triazoles As Gamma-Secretase Modulators” (Pfizer Inc., priority 2009, published 2012)

tested on: γ-secretase (production of amyloid beta protein Aβ (1-42)); experiment: Cell-based γ-secretase assay with ELISA readout (Aβ (1-42) production); parameters: species or system human WT-APP overexpressing CHO cells; conditions: Geometric mean of at least 2 determinations; Table 3; read-out: Aβ 42 IC50 (μM)*
Procedure: Cell-Based γ-Secretase Assay with ELISA Readout
The ability of compounds to modulate production of amyloid beta protein Aβ (1-42) was determined using human WT-APP overexpressing CHO cells. Cells were plated at 22,000 cells/100 μL well in 96 well tissue culture treated, clear plates (Falcon) in DMEM/F12 based medium and incubated for 24 hours at 37° C. Compounds for testing were diluted in 100% DMSO to achieve an eleven points, half log, dose response for IC50 determinations. Compounds were added in fresh medium to achieve 1% final DMSO. Appropriate vehicle and inhibitor controls were added to obtain maximum and minimum inhibition values for the assay before the plates were incubated for about 24 hours at 37° C.
Coating of ELISA assay plates was initiated by addition of 50 μL/well of an in-house Aβ (1-42) specific antibody at (4 μg/mL) in 0.1 M NaHCO3 (pH 9.0) into black 384-well Maxisorp® plates (Nunc) and incubated overnight at 4° C. The capture antibody was then aspirated from the ELISA assay plates and 100 μL/well of Blocking Buffer (Dulbecco's PBS, 1.5% BSA (Sigma A7030)) added. Ambient temperature incubation was allowed to proceed for a minimum of two hours before washing 2×100 μL with Wash Buffer (Dulbecco's PBS, 0.05% Tween 20). Assay Buffer (Dulbecco's PBS, 1.0% BSA (Sigma A7030), 0.05% Tween 20) 20 μL/well was then added.
After incubation overnight at 37° C., 5% CO2, 40 μL (in duplicate) of experimental conditioned media were transferred into wells of the blocked ELISA plates containing the capture antibody, followed by overnight incubation at 4° C. Cell toxicity was measured in the corresponding cells after removal of the media for the Aβ (1-42) assay by a colorimetric cell proliferation assay (CellTiter 96® AQueous One Solution Cell Proliferation Assay, Promega) according to the manufacturer's instructions.
After overnight incubation of the ELISA assay plates at 4° C., unbound Aβ peptides were removed thorough (4×100 μL) washes with Wash Buffer. Europium (Eu) labeled (custom labeled, Perkin Elmer) Aβ (1-16) 6e10 Monoclonal Antibody (Covance #SIG-39320 was added, (50 μL /well Eu-6e10 @ 1:5000, 20 uM EDTA) in Assay Buffer. Incubation at ambient temperature for a minimum of 2 hours was followed by (4×100 μL) washes with Wash Buffer, before 50 μL/well of Delfia Enhancement Solution (Perkin Elmer) was added. Following a one hour ambient temperature incubation, the plates were read on an EnVision plate reader (Perkin Elmer) using standard DELFIA TRF settings. Data analysis including inhibitory IC50 determination was performed using nonlinear regression fit analysis (in-house software) and the appropriate plate mean values for the maximum and minimum inhibition controls.

In order of falling IC50:
1. COc1nc(C(=O)NC2COc3cc(F)c(Cl)cc32)ccc1-n1cnc(C)c1 (centres unmarked) [Example 55, N-[5-chloro-6-fluoro-2,3-dihydro-1-benzofuran-3-yl]-6-methoxy-5-(4-methyl-1H-imidazol-1-yl)pyridine-2-carboxamide]  0.423 µM
2. COc1nc(C(=O)NC2COc3ccc(C(F)(F)F)c(F)c32)ccc1-n1cnc(C)c1 (centres unmarked) [Example 54, N-[4-fluoro-5-(trifluoromethyl)-2,3-dihydro-1-benzofuran-3-yl]-6-methoxy-5-(4-methyl-1H-imidazol-1-yl)pyridine-2-carboxamide]  0.411 µM
3. COc1nc(C(=O)NC2COc3ccc(Cl)c(F)c32)ccc1-n1cnc(C)c1 (centres unmarked) [Example 49, N-[5-chloro-4-fluoro-2,3-dihydro-1-benzofuran-3-yl]-6-methoxy-5-(4-methyl-1H-imidazol-1-yl)pyridine-2-carboxamide]  0.194 µM

same assay, conditions: human WT-APP overexpressing CHO cells; Aβ (1-42) ELISA; about 24 hours at 37° C.; free base or salt; read-out: Aβ 42B IC50 (μM) (Geometric Mean of 2-8 Determinations)

COc1nc(C(=O)N2CC[C@H](Oc3ccccc3C(F)(F)F)C2)ccc1-n1cnc(C)c1 [Example 36, 2-methoxy-3-(4-methyl-1H-imidazol-1-yl)-6-({(3S)-3-[2-(trifluoromethyl)-phenoxy]pyrrolidin-1-yl}carbonyl)pyridine] and COc1nc(C(=O)N2CC[C@@H](Oc3ccccc3C(F)(F)F)C2)ccc1-n1cnc(C)c1 [Example 37, 2-methoxy-3-(4-methyl-1H-imidazol-1-yl)-6-({(3R)-3-[2-(trifluoromethyl)-phenoxy]pyrrolidin-1-yl}carbonyl)pyridine] are within 1.5-fold of each other in IC50: 0.207 µM for the first, 0.285 µM for the second.

Compared with Cc1cn(-c2ncc(C(=O)NCC3(c4ccc(Cl)cc4)CC3)cc2Cl)cn1 [Example 34, 5-chloro-N-{[1-(4-chlorophenyl)cyclopropyl]methyl}-6-(4-methyl-1H-imidazol-1-yl)nicotinamide], COc1nc(C(=O)NCC2(c3ccc(Cl)cc3)CC2)cnc1-n1cnc(C)c1 [Example 7, N-{[1-(4-Chlorophenyl)cyclopropyl]methyl}-6-methoxy-5-(4-methyl-1H-imidazol-1-yl)pyrazine-2-carboxamide] is 2.3-fold lower in IC50: 1.37 µM for the first, 0.591 µM for the second. The second is the more potent here.

Going from COc1nc(C(=O)N2CC[C@H](Oc3ccccc3C(F)(F)F)C2)cnc1-n1cnc(C)c1 [Example 8, 3-methoxy-2-(4-methyl-1H-imidazol-1-yl)-5-({(3S)-3-[2-(trifluoromethyl)-phenoxy]pyrrolidin-1-yl}carbonyl)pyrazine] to COc1cc(C(=O)N2CC[C@H](Oc3ccccc3C(F)(F)F)C2)cnc1-n1cnc(C)c1 [Example 47, 3-methoxy-2-(4-methyl-1H-imidazol-1-yl)-5-({(3S)-3-[2-(trifluoromethyl)-phenoxy]pyrrolidin-1-yl}carbonyl)pyridine], the IC50 rises from 0.535 µM to 3.44 µM (6.4-fold). The first is the more potent here.

First: COc1nc(C(=O)NCc2cc(Cl)cc(Cl)c2)ccc1-n1cnc(C)c1 [Example 43, N-(3,5-dichlorobenzyl)-6-methoxy-5-(4-methyl-1H-imidazol-1-yl)pyridine-2-carboxamide]
Second: COc1nc(C(=O)NCc2ccc(Cl)cc2Cl)ccc1-n1cnc(C)c1 [Example 44, N-(2,4-dichlorobenzyl)-6-methoxy-5-(4-methyl-1H-imidazol-1-yl)pyridine-2-carboxamide]
The IC50 of the first is 1.8-fold lower: 0.216 µM for the first, 0.394 µM for the second.

COc1cc(C(=O)NCc2sc3c(F)ccc(F)c3c2Cl)ncc1-n1cnc(C)c1 [Example 22, N-[(3-chloro-4,7-difluoro-1-benzothien-2-yl)methyl]-4-methoxy-5-(4-methyl-1H-imidazol-1-yl)pyridine-2-carboxamide] and COc1cc(C(=O)NCCc2c[nH]c3ccc(Cl)cc23)ncc1-n1cnc(C)c1 [Example 24, N-[2-(5-chloro-1H-indol-3-yl)ethyl]-4-methoxy-5-(4-methyl-1H-imidazol-1-yl)pyridine-2-carboxamide] cannot be ordered by IC50: > 15.8 µM for the first, 18 µM for the second.

COc1nc(C(=O)NC(C)(C)c2ccc(F)cc2)ccc1-n1cnc(C)c1 [Example 32, N-[1-(4-fluorophenyl)-1-methylethyl]-6-methoxy-5-(4-methyl-1H-imidazol-1-yl)pyridine-2-carboxamide] and COc1nc(C(=O)NC(C)(C)c2ccc(F)cc2)cnc1-n1cnc(C)c1 [Example 17, N-[1-(4-fluorophenyl)-1-methylethyl]-6-methoxy-5-(4-methyl-1H-imidazol-1-yl)pyrazine-2-carboxamide] are within 1.5-fold of each other in IC50: 2.01 µM for the first, 2.41 µM for the second.

Going from COc1nc(C(=O)NCCc2nc3ccc(Cl)cc3o2)ccc1-n1cnc(C)c1 [Example 26, N-[2-(6-chloro-1,3-benzoxazol-2-yl)ethyl]-6-methoxy-5-(4-methyl-1H-imidazol-1-yl)pyridine-2-carboxamide] to COc1nc(C(=O)N[C@@H]2CCc3ccc(Cl)cc32)ccc1-n1cnc(C)c1 [Example 39, N-[(1R)-6-chloro-2,3-dihydro-1H-inden-1-yl]-6-methoxy-5-(4-methyl-1H-imidazol-1-yl)pyridine-2-carboxamide], the IC50 rises from 0.524 µM to 1.34 µM (2.6-fold). The first is the more potent here.

First: Cc1cn(-c2ccc(C(=O)NCC3(c4cccc(C(F)(F)F)c4)CCOCC3)cn2)cn1 [Example 1, 6-(4-Methyl-1H-imidazol-1-yl)-N-({4-[3-(trifluoromethyl)phenyl]tetrahydro-2H-pyran-4-yl}methyl)nicotinamide]
Second: COc1nc(C(=O)NCC2(c3cccc(C)c3)CCC2)ccc1-n1cnc(C)c1 [Example 27, 6-methoxy-5-(4-methyl-1H-imidazol-1-yl)-N-{[1-(3-methylphenyl)cyclobutyl]-methyl}pyridine-2-carboxamide]
The IC50 of the first is 31-fold higher: 13.6 µM for the first, 0.438 µM for the second.

Compared with COc1nc(C(=O)NCC2(c3ccc(F)cc3)CCC2)ccc1-n1cnc(C)c1 [Example 28, N-{[1-(4-fluorophenyl)-cyclobutyl]methyl}-6-methoxy-5-(4-methyl-1H-imidazol-1-yl)pyridine-2-carboxamide], COc1nc(C(=O)NCC2(c3ccc(Cl)cc3)CC2)ccc1-n1cnc(C)c1 [Example 3, N-{[1-(4-Chlorophenyl)cyclopropyl]methyl}-6-methoxy-5-(4-methyl-1H-imidazol-1-yl)pyridine-2-carboxamide] is 1.7-fold lower in IC50: 0.314 µM for the first, 0.186 µM for the second. The second is the more potent here.

Compared with COc1nc(C(=O)NCC2(c3ccccc3)CCCC2)cnc1-n1cnc(C)c1 [Example 2, 6-Methoxy-5-(4-methyl-1H-imidazol-1-yl)-N-[(1-phenylcyclopentyl)methyl]pyrazine-2-carboxamide], COc1nc(C(=O)NCC2(c3ccc(F)cc3)CCC2)cnc1-n1cnc(C)c1 [Example 11, N-{[1-(4-fluorophenyl)-cyclobutyl]methyl}-6-methoxy-5-(4-methyl-1H-imidazol-1-yl)pyrazine-2-carboxamide] is 1.7-fold lower in IC50: 2.29 µM for the first, 1.38 µM for the second. The second is the more potent here.

Compared with COc1nc(C(=O)NCc2cccc(Cl)c2C)ccc1-n1cnc(C)c1 [Example 41, N-(3-chloro-2-methylbenzyl)-6-methoxy-5-(4-methyl-1H-imidazol-1-yl)pyridine-2-carboxamide], COc1nc(C(=O)NCc2ccc(OC(F)(F)F)cc2)cnc1-n1cnc(C)c1 [Example 18, 6-methoxy-5-(4-methyl-1H-imidazol-1-yl)-N-[4-(trifluoromethoxy)benzyl]-pyrazine-2-carboxamide] is 16-fold higher in IC50: 0.332 µM for the first, 5.43 µM for the second.

Going from COc1cc(C(=O)N2CC[C@@H](Oc3ccccc3C(F)(F)F)C2)cnc1-n1cnc(C)c1 [Example 46, 3-methoxy-2-(4-methyl-1H-imidazol-1-yl)-5-({(3R)-3-[2-(trifluoromethyl)-phenoxy]pyrrolidin-1-yl}carbonyl)pyridine] to COc1nc(C(=O)NCC(C)(C)c2ccc(F)cc2)cnc1-n1cnc(C)c1 [Example 13, N-[2-(4-fluorophenyl)-2-methylpropyl]-6-methoxy-5-(4-methyl-1H-imidazol-1-yl)pyrazine-2-carboxamide], the IC50 falls from 2.3 µM to 1.36 µM (1.7-fold). The second is the more potent here.

COc1nc(C(=O)NCC2CCCC2)cnc1-n1cnc(C)c1 [Example 19, N-(cyclopentylmethyl)-6-methoxy-5-(4-methyl-1H-imidazol-1-yl)pyrazine-2-carboxamide] and COc1cc(C(=O)NCCc2c(C)[nH]c3c(Cl)cc(Cl)cc23)ncc1-n1cnc(C)c1 [Example 21, N-[2-(5,7-dichloro-2-methyl-1H-indol-3-yl)ethyl]-4-methoxy-5-(4-methyl-1H-imidazol-1-yl)pyridine-2-carboxamide] are within 1.5-fold of each other in IC50: 5.77 µM for the first, 6.25 µM for the second.
